# Results: patent publication US7932384B2, “Reverse-turn mimetics and method relating thereto” (Choongwae Pharma Corporation, priority 2001, dated 2011)
# Experiments:
# Type in all cases: cell-based
# LOVO = assay: Sulforhodamine B (SRB) assay, LOVO; conditions: Colon, 48 hours
# Procedure: (§1) Growth inhibitory effect of Compound A on the cells listed below was measured by the sulforhodamine B assay. SW480 cells in 100 μl media were plated in each well of 96-well plate and allowed to attach for 24 hours. Compound A was added to the wells to produce the desired final concentrations, and the plates were incubated at 37° C. for 48 hours. The cells were then fixed by gentle addition of 100 μl of cold (4° C.) 10% trichloroacetic acid to each well, followed by incubation at 4° C. for 1 hour. Plates were washed with deionized water five times and allowed to air dry. The cells were then stained by addition of 100 μl SRB solution (0.4% SRB(w/v) in 1% acetic acid (v/v)) to wells for 15 min. After staining, the plates were quickly washed five times with 1% acetic acid to remove any unbound dye, and allowed to air dry. Bound dye was solubilized with 10 mmol/L Tris base (pH 10.5) prior to reading the plates. The optical density (OD) was read on a plate reader at a wavelength of 515 nm with Molecular Device. Inhibition of growth was expressed as relative viability (% of control) and GI50 was calculated from concentration-response curves after log/probit transformation.
# (§2) The values in Table 6 are in μg/ml.
# RPMI8226 = assay: Sulforhodamine B (SRB) assay, RPMI8226; conditions: Leukemia, RPMI8226, 48 hours
# Procedure: as §1, §2
# SW620 = assay: Sulforhodamine B (SRB) assay, SW620; conditions: Colon, SW620, 48 hours
# Procedure: as §1, §2
# A549 = assay: Sulforhodamine B (SRB) assay, A549; conditions: Lung, A549, 48 hours
# Procedure: as §1, §2
# HL60 = assay: Sulforhodamine B (SRB) assay, HL60; conditions: Leukemia, HL60, 48 hours
# Procedure: as §1, §2
# KM12 = assay: Sulforhodamine B (SRB) assay, KM12; conditions: Colon, KM12, 48 hours
# Procedure: as §1, §2
# T84 = assay: Sulforhodamine B (SRB) assay, T84; conditions: Colon, T84, 48 hours
# Procedure: as §1, §2
# HT29 = assay: Sulforhodamine B (SRB) assay, HT29; conditions: Colon, HT29, 48 hours
# Procedure: as §1, §2
# HCT15 = assay: Sulforhodamine B (SRB) assay, HCT15; conditions: Colon, HCT15, 48 hours
# Procedure: as §1, §2
# A375 = assay: Sulforhodamine B (SRB) assay, A375; conditions: Melanoma, A375, 48 hours
# Procedure: as §1, §2
# HCT116 = assay: Sulforhodamine B (SRB) assay, HCT116; conditions: Colon, HCT116, 48 hours
# Procedure: as §1, §2
# K562/ADR = assay: Sulforhodamine B (SRB) assay, K562/ADR; conditions: Leukemia, 48 hours
# Procedure: as §1, §2
# PC3 = assay: Sulforhodamine B (SRB) assay, PC3; conditions: Prostate, PC3, 48 hours
# Procedure: as §1, §2
# SK-MEL-5 = assay: Sulforhodamine B (SRB) assay, SK-MEL-5; conditions: Melanoma, SK-MEL-5, 48 hours
# Procedure: as §1, §2
# SW480-Kribb = assay: Sulforhodamine B (SRB) assay, SW480-Kribb; conditions: Colon, 48 hours
# Procedure: as §1, §2
# DLD-1 = assay: Sulforhodamine B (SRB) assay, DLD-1; conditions: Colon, DLD-1, 48 hours
# Procedure: as §1, §2
# SK-MEL-28 = assay: Sulforhodamine B (SRB) assay, SK-MEL-28; conditions: Melanoma, SK-MEL-28, 48 hours
# Procedure: as §1, §2
# HCC2998 = assay: Sulforhodamine B (SRB) assay, HCC2998; conditions: Colon, HCC2998, 48 hours
# Procedure: as §1, §2
# NCI H460 = assay: Sulforhodamine B (SRB) assay, NCI H460; conditions: Lung, NCI H460, 48 hours
# Procedure: as §1, §2
# UACC62 = assay: Sulforhodamine B (SRB) assay, UACC62; conditions: Melanoma, UACC62, 48 hours
# Procedure: as §1, §2
# CAKI-1 = assay: Sulforhodamine B (SRB) assay, CAKI-1; conditions: Renal, CAKI-1, 48 hours
# Procedure: as §1, §2
# COLO205 = assay: Sulforhodamine B (SRB) assay, COLO205; conditions: Colon, COLO205, 48 hours
# Procedure: as §1, §2
# LOX-IMVI = assay: Sulforhodamine B (SRB) assay, LOX-IMVI; conditions: Melanoma, 48 hours
# Procedure: as §1, §2
# MCF7 = assay: Sulforhodamine B (SRB) assay, MCF7; conditions: Breast, MCF7, 48 hours
# Procedure: as §1, §2
# HT1080 = assay: Sulforhodamine B (SRB) assay, HT1080; conditions: Prostate, HT1080, 48 hours
# Procedure: as §1, §2
# K562 = assay: Sulforhodamine B (SRB) assay, K562; conditions: Leukemia, K562, 48 hours
# Procedure: as §1, §2
# K562/VIN = assay: Sulforhodamine B (SRB) assay, K562/VIN; conditions: Leukemia, 48 hours
# Procedure: as §1, §2
# caspase 3 = assay: Caspase 3 activity in cultured tumor cells; conditions: 0.5 μM
# caspase 2 = assay: Caspase 2 activity in cultured tumor cells; conditions: 0.5 μM
# cultured tumor cells [1] = assay: Cell death of cultured tumor cells; conditions: 0.5 μM
# cultured tumor cells [2] = assay: FACS analysis of cells in G0, cultured tumor cells; conditions: 0.5 μM
# ACHN = assay: Sulforhodamine B (SRB) assay, ACHN; conditions: Renal, 48 hours
# Procedure: as §1, §2
# 293 = assay: Sulforhodamine B (SRB) assay, 293; conditions: Renal, 293, 48 hours
# Procedure: as §1, §2
# M14 = assay: Sulforhodamine B (SRB) assay, M14; conditions: Melanoma, M14, 48 hours
# Procedure: as §1, §2
# SW480-CWP = assay: Sulforhodamine B (SRB) assay, SW480-CWP; conditions: Colon, 48 hours
# Procedure: as §1, §2
# A431 = assay: Sulforhodamine B (SRB) assay, A431; conditions: Melanoma, A431, 48 hours
# Procedure: as §1, §2
# NCI H23 = assay: Sulforhodamine B (SRB) assay, NCI H23; conditions: Lung, NCI H23, 48 hours
# Procedure: as §1, §2
# RPMI7951 = assay: Sulforhodamine B (SRB) assay, RPMI7951; conditions: Melanoma, RPMI7951, 48 hours
# Procedure: as §1, §2
# A253 = assay: Sulforhodamine B (SRB) assay, A253; conditions: Melanoma, A253, 48 hours
# Procedure: as §1, §2
# MCF7/ADR = assay: Sulforhodamine B (SRB) assay, MCF7/ADR; conditions: Breast, 48 hours
# Procedure: as §1, §2
# CACO-2 = assay: Sulforhodamine B (SRB) assay, CACO-2; conditions: Colon, CACO-2, 48 hours
# Procedure: as §1, §2
# HMV-I = assay: Sulforhodamine B (SRB) assay, HMV-I; conditions: Melanoma, 48 hours
# Procedure: as §1, §2
# CRL1579 = assay: Sulforhodamine B (SRB) assay, CRL1579; conditions: Melanoma, CRL1579, 48 hours
# Procedure: as §1, §2
# G361 = assay: Sulforhodamine B (SRB) assay, G361; conditions: Melanoma, G361, 48 hours
# Procedure: as §1, §2
# 786-0 = assay: Sulforhodamine B (SRB) assay, 786-0; conditions: Renal, 786-0, 48 hours
# Procedure: as §1, §2
Compound,GI50 (SRB assay) (LOVO) [µg/mL],GI50 (SRB assay) (SW620) [µg/mL],GI50 (SRB assay) (A549) [µg/mL],GI50 (SRB assay) (HL60) [µg/mL],GI50 (SRB assay) (KM12) [µg/mL],GI50 (SRB assay) (T84) [µg/mL],GI50 (SRB assay) (HT29) [µg/mL],GI50 (SRB assay) (HCT15) [µg/mL],GI50 (SRB assay) (A375) [µg/mL],GI50 (SRB assay) (HCT116) [µg/mL],GI50 (SRB assay) (K562/ADR) [µg/mL],GI50 (SRB assay) (PC3) [µg/mL],GI50 (SRB assay) (SK-MEL-5) [µg/mL],GI50 (SRB assay) (SW480-Kribb) [µg/mL],GI50 (SRB assay) (DLD-1) [µg/mL],GI50 (SRB assay) (SK-MEL-28) [µg/mL],GI50 (SRB assay) (HCC2998) [µg/mL],GI50 (SRB assay) (NCI H460) [µg/mL],GI50 (SRB assay) (UACC62) [µg/mL],GI50 (SRB assay) (CAKI-1) [µg/mL],further results
"N.N.[Cl][Pt][Cl] [Cisplatin, cisplatin, reference compound]",>10,>10,>10,>10,>10,>10,>10,>10,>10,>10,>10,>10,>10,>10,>10,>10,>10,>10,>10,>10,GI50 (SRB assay) (RPMI8226): >10 µg/mL; GI50 (SRB assay) (COLO205): >10 µg/mL; GI50 (SRB assay) (LOX-IMVI): >10 µg/mL; GI50 (SRB assay) (MCF7): >10 µg/mL; GI50 (SRB assay) (HT1080): >10 µg/mL; GI50 (SRB assay) (K562): >10 µg/mL; GI50 (SRB assay) (K562/VIN): >10 µg/mL
"CN[C@@H]1C[C@H]2O[C@@](C)([C@@H]1OC)n1c3ccccc3c3c4c(c5c6ccccc6n2c5c31)C(=O)NC4 [stausporine, staurosporine, reference compound]",,,,,,,,,,,,,,,,,,,,,caspase 3 activity (caspase 3): increased both the caspase 2 and caspase 3 activities; caspase 2 activity (caspase 2): increased both the caspase 2 and caspase 3 activities; cell death (cultured tumor cells [1]): promote cell death; number of cells in G0 (FACS) (cultured tumor cells [2]): increase the number of cells in G0
"2-Methyl-5-(p-hydroxyphenylmethyl)-7-naphthylmethyl-3,6-dioxo-hexahydro-[1,2,4]triazolo[4,5-a]pyrazine-1-carboxylic acid benzylamide [Example 4]",0.532,1.426,1.386,1.243,1.451,1.134,1.694,2.042,1.391,0.96,7.682,1.207,0.888,1.137,1.775,1.291,1.047,1.498,0.563,0.467,GI50 (SRB assay) (ACHN): 1.263 µg/mL; GI50 (SRB assay) 293: 0.731 µg/mL; GI50 (SRB assay) (M14): 2.289 µg/mL; GI50 (SRB assay) (SW480-CWP): 0.980 µg/mL; GI50 (SRB assay) (A431): 1.083 µg/mL; GI50 (SRB assay) (NCI H23): 1.296 µg/mL; GI50 (SRB assay) (RPMI7951): 0.936 µg/mL; GI50 (SRB assay) (A253): 1.398 µg/mL; GI50 (SRB assay) (MCF7/ADR): 9.487 µg/mL; GI50 (SRB assay) (CACO-2): 1.201 µg/mL; GI50 (SRB assay) (HMV-I): 1.153 µg/mL; GI50 (SRB assay) (CRL1579): 1.830 µg/mL; GI50 (SRB assay) (G361): 0.584 µg/mL; GI50 (SRB assay) (COLO205): 1.136 µg/mL; GI50 (SRB assay) (LOX-IMVI): 1.526 µg/mL; GI50 (SRB assay) (786-0): 1.417 µg/mL; GI50 (SRB assay) (MCF7): 7.355 µg/mL; GI50 (SRB assay) (HT1080): 1.469 µg/mL; GI50 (SRB assay) (K562): 1.247 µg/mL; GI50 (SRB assay) (K562/VIN): 1.640 µg/mL
